Laboratory results taken from patent US12049642B2, “Corneal endothelial cells with increased cell density and compositions thereof” (Astellas Institute for Regenerative Medicine, priority 2011, dated 2024).

Legend:
[1] = tested on: hESC-derived CEC; assay: Effect of ROCK inhibitor on harvested and replated hESC-derived CEC; type: cell-based, human; set-up: key to O/N Confluent: +: “O/N confluent” indicates the confluence of cultured cells after overnight plating, reflecting the degree of cell survival and/or attachment.; −: “O/N confluent” indicates the confluence of cultured cells after overnight plating, reflecting the degree of cell survival and/or attachment; key to Morphology: a high quality polygonal/hexagonal cell shape (“++”); a polygonal/hexagonal shape (“+”); fibroblastic morphology (“−”); key to COL8A1 mRNA / AQP1 mRNA / SLC16A3 mRNA: expression (“+”); non-expression (“−”)
Experimental: Expression of COL8A1 and SLC16A3 were elevated relative to hESC (FIGS. 17E-17F).
The harvested cells were further examined for morphology, ability to reestablished a confluent culture, and retaining expression of the CEC markers COL8A1, AQP1, and SLC16A by qPCR. […] Moreover, Maintenance with media containing ROCK inhibitor can help the cells maintain a high quality CEC morphology after harvesting and replating.
Rock inhibitor […] (Wako, cat #253-00513) was dissolved in distilled H2O to make a 10 mM stock solution and sterile filtered and aliquoted. Rock inhibitor aliquot was thawed and added fresh to media daily.
Cornea cells were grown as described in Example 2 and harvested by treatment with 0.25% Trypsin as described in Example 4 and replated, with variations (i.e., inclusion of ROCK inhibitor and/or ASC as described below).
After plating, cells were viewed to identify any morphological changes, and specifically whether they regained their polygonal/hexagonal shape, were a mixed population of polygonal and fibroblastic shape, or if they had turned fibroblastic.
Media was changed daily with fresh Rock inhibitor except for “Pretreatment” and “D1” paradigms. After 1 week of culture, RNA was collected and analyzed by QPCR for changes in COL8A1, AQP1, and SLC16A3 mRNA levels. The efficacy of the Rock inhibitor for harvesting cells were tested between 1-20 microM.
For the “Pretreatment” paradigm, CEC were produced as described in Example 2. The cornea media was removed and replaced with either 10 microM Rock or 10 microM Rock with 0.3 mM ASC-P2 (L ascorbic acid phosphate magnesium salt n-hydrate (Wako, cat #013-19641)) for 1 hour before harvesting. Cells were harvested using 0.25% trypsin as described above, however, no Rock inhibitor was added during harvesting.
For the “Rock overnight” paradigm, CEC were produced as described in Example 2, harvested with 0.25% trypsin as described above, and then plated overnight in the presence of 10 microM Rock inhibitor. The following morning, the media was removed, and no further Rock inhibitor was added to the media.
For the “Rock maintenance” paradigm, CEC were produced as described in Example 2, harvested using 0.25% trypsin as described above, and were maintained in Rock inhibitor added daily to fresh media.
For the “D1” paradigm, CEC were produced as described in Example 2, harvested using 0.25% trypsin as described above, and cultured in presence of Rock inhibitor for 1 week. Cornea cells were then grown for additional week in the presence or absence of Rock inhibitor, to determine whether the ROCK inhibitor contributed to the maintenance of their morphology.

[2] = tested on: CEC; assay: ANGPL7 included in culture media during CEC differentiation; type: cell-based, human; conditions: in culture media in combination with DKK2 and PDGFB; methods of Example 1
Description: Accordingly, ANGPL7 may optionally be used in the differentiation of corneal endothelial cells, for example by its inclusion in the culture during and/or after formation of corneal endothelial cells. ANGPL1-8 may be used in place of or in addition to ANGPL7.

[3] = D1: factors in media for the first week after plating, thereafter omitted

## C[C@@H](N)[C@H]1CC[C@H](C(=O)Nc2ccncc2)CC1 [Rock, (1R,4r)-4-((R)-1-aminoethyl)-N-(pyridin-4-yl)cyclohexanecarboxamide]
[1]; 1 μM Rock inhibitor, FIG. 17A
  morphology of the hESC CEC trypsinized and replated: variable
[1]; 5 μM Rock inhibitor, FIG. 17B
  morphology of the hESC CEC trypsinized and replated: somewhat more uniform
[1]; 10 μM Rock inhibitor, FIG. 17C
  morphology of the hESC CEC trypsinized and replated: uniform and polygonal/hexagonal
[1]; 20 μM Rock inhibitor, FIG. 17D
  morphology of the hESC CEC trypsinized and replated: uniform and polygonal/hexagonal
[1]; 20 μM Rock inhibitor, QPCR
  SLC16A3 expression compared to PD1T that has not been harvested: unchanged
[1]; 1-10 μM Rock inhibitor, QPCR
  SLC16A3 expression compared to PD1T that has not been harvested: upregulated
[1]; 1 microM (maint.), in media each day after plating
  O/N Confluent: +
[1]; 1 microM (maint.), QPCR
  AQP1 mRNA: +
  COL8A1 mRNA: +
  SLC16A3 mRNA: +
[1]; 1 microM (maint.), after 1 week in culture
  Morphology: +
[1]; 5 microM (maint.)
  O/N Confluent: +
[1]; 5 microM (maint.), QPCR
  AQP1 mRNA: +
  COL8A1 mRNA: +
  SLC16A3 mRNA: +
[1]; 5 microM (maint.), after 1 week in culture
  Morphology: ++
[1]; 10 microM (maint.), ASC 0.3 mM where added
  O/N Confluent: +
[1]; 10 microM (maint.), QPCR
  AQP1 mRNA: +
  COL8A1 mRNA: +
  SLC16A3 mRNA: +
[1]; 10 microM (maint.), after 1 week in culture
  Morphology: ++
[1]; 20 microM (maint.), ASC 0.3 mM where added
  O/N Confluent: +
[1]; 20 microM (maint.), QPCR
  AQP1 mRNA: +
  COL8A1 mRNA: +
  SLC16A3 mRNA: +
[1]; 20 microM (maint.), after 1 week in culture
  Morphology: ++
[1]; [3]
  Morphology: −
  O/N Confluent: +
[1]; Pretreat: 10 microM Rock 1 hour before harvesting with 0.25% trypsin, ASC 0.3 mM where added
  O/N Confluent: −
[1]; Pretreat: 10 microM Rock 1 hour before harvesting, after 1 week in culture
  Morphology: −
[1]; Pretreat, QPCR after 1 week
  AQP1 mRNA: +
  COL8A1 mRNA: +
  SLC16A3 mRNA: +
[1]; QPCR, FIG. 17E
  COL8A1 expression compared to PD1T that has not been harvested: relatively unchanged
[1]; concentrations up to 20 micromolar, FIGS. 17A-17D
  cell uniformity and polygonal/hexagonal morphology: dose-responsive improvement
[1]; o/n: plated overnight with 10 microM Rock after harvest, ASC 0.3 mM where added
  O/N Confluent: +
[1]; o/n: plated overnight with 10 microM Rock, after 1 week in culture
  Morphology: +
[1]; o/n, QPCR after 1 week
  AQP1 mRNA: +
  COL8A1 mRNA: +
  SLC16A3 mRNA: +

B1: ANGPL7: Angiopoietin-Like Protein 7, included in the culture media with DKK2 and PDGFB (protein, UniProt O43827 27-346, looked up)
Angiopoietin-related protein 7: QKLSKHKTPAQPQLKAANCCEEVKELKAQVANLSSLLSELNKKQERDWVSVVMQVMELESNSKRMESRLTDAESKYSEMNNQIDIMQLQAAQTVTQTSADAIYDCSSLYQKNYRISGVYKLPPDDFLGSPELEVFCDMETSGGGWTIIQRRKSGLVSFYRDWKQYKQGFGSIRGDFWLGNEHIHRLSRQPTRLRVEMEDWEGNLRYAEYSHFVLGNELNSYRLFLGNYTGNVGNDALQYHNNTAFSTKDKDNDNCLDKCAQLRKGGYWYNCCTDSNLNGVYYRLGEHNKHLDGITWYGWHGSTYSLKRVEMKIRPEDFKP
[2]
  packing and morphology of the resulting CEC: tighter packing and more hexagonal morphology
